This experiment has as its system Female C57/bl6 Mice. Briefly: V. Cholerae Experiment 1: immune response in fecal pellets. It counts as in vivo. As to conditions: oral, 2.5×10^8 bacteria, 10 μg αGalCer, 3 rounds, ELISA. On the technique in general: An ELISA detects its analyte on a solid surface through an enzyme-linked reagent.

Turning to `CCCCCCCCCCCCCCCCCCCCCCCCCC(=O)N[C@@H](CO[C@H]1O[C@H](CO)[C@H](O)[C@H](O)[C@H]1O)[C@H](O)[C@H](O)CCCCCCCCCCCCCC` [αGalCer, α-galactosylceramide], the “anti Inaba-LPS IgA and IgG titres in fecal pellets” value is on record as “effective adjuvant”.
